The source of these data is PubChem BioAssay AID256 (DTP/NCI, 2004).

The test system of this experiment is CD2F1 mice, L1210 leukemia ip, survival T/C. Description: NCI In Vivo Anticancer Drug Screen. Data for tumor model L1210 Leukemia (intraperitoneal) in CD2F1 (CDF1) mice. Conditions: higher = longer survival. Summed up: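 Ratio T/C, where T is the treated-group value and C the vehicle-dosed control value, from mice implanted with a transplantable tumor.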
Where [1] appears, read: endpoint: mean survival time, dose: 50.0 mg/kg/injection, schedule: Q01DX009 (ip), vehicle: saline with Tween-80.
Setting [2] is: endpoint: mean survival time, dose: 100.0 mg/kg/injection, schedule: Q01DX009 (ip), vehicle: saline with Tween-80.
Setting [3] is: endpoint: mean survival time, dose: 100.0 mg/kg/injection, schedule: Q04DX003 (ip), vehicle: saline with Tween-80.
Setting [4] is: endpoint: mean survival time, dose: 200.0 mg/kg/injection, schedule: Q04DX003 (ip), vehicle: saline with Tween-80.
The mark [5] stands for this setting: endpoint: mean survival time, dose: 400.0 mg/kg/injection, schedule: Q04DX003 (ip), vehicle: saline with Tween-80.
[6] abbreviates: endpoint: mean survival time, dose: 100.0 mg/kg/injection, schedule: Q04DX003 (ip), vehicle: saline.
The mark [7] stands for this setting: endpoint: mean survival time, dose: 200.0 mg/kg/injection, schedule: Q04DX003 (ip), vehicle: saline.
Setting [8] is: endpoint: mean survival time, dose: 200.0 mg/kg/injection, schedule: Q01DX009 (ip), vehicle: saline with Tween-80.
The mark [9] stands for this setting: endpoint: mean survival time, dose: 400.0 mg/kg/injection, schedule: Q01DX009 (ip), vehicle: saline with Tween-80.
Where [10] appears, read: endpoint: mean survival time, dose: 50.0 mg/kg/injection, schedule: Q04DX003 (ip), vehicle: saline.
The mark [11] stands for this setting: endpoint: mean survival time, dose: 50.0 mg/kg/injection, schedule: Q04DX003 (ip), vehicle: saline with Tween-80.

Values joined by “and” are separate entries in the source; they are usually repeats but may differ in a detail not shown here. Equal entries are not always repeated. Toxic doses and inconclusive results are not listed.

`NC(COC(c1ccccc1)(c1ccccc1)c1ccccc1)C(=O)O` (stereo not drawn): the T/C is 103 % of control (endpoint: mean survival time, dose: 25.0 mg/kg/injection, schedule: Q01DX009 (ip), vehicle: saline); 113 % of control (endpoint: mean survival time, dose: 50.0 mg/kg/injection, schedule: Q01DX009 (ip), vehicle: saline); 150 % of control (endpoint: mean survival time, dose: 200.0 mg/kg/injection, schedule: Q01DX009 (ip), vehicle: saline); 122 % of control (endpoint: mean survival time, dose: 300.0 mg/kg/injection, schedule: Q01DX009 (ip), vehicle: saline); 111 % of control (endpoint: mean survival time, dose: 400.0 mg/kg/injection, schedule: Q01DX009 (ip), vehicle: saline).

`NC(N)=NC(N)=Nc1ccc(-c2ccccc2)cc1`: the T/C (endpoint: mean survival time, dose: 25.0 mg/kg/injection, schedule: Q01DX001 (ip), vehicle: saline with Tween-80) is 100 % of control; the T/C (endpoint: mean survival time, dose: 50.0 mg/kg/injection, schedule: Q01DX001 (ip), vehicle: saline with Tween-80) was 103 % of control; the T/C (endpoint: mean survival time, dose: 100.0 mg/kg/injection, schedule: Q01DX001 (ip), vehicle: saline with Tween-80) is 93 % of control.

With `O=C(O)c1ccccc1C(c1ccccc1)c1ccccc1`, the T/C by setting is: under setting [1], 94 % of control; under setting [2], 94 % of control.

Consider `OC(C/C(=N\Nc1ccccc1)c1ccc(F)cc1)(C(F)(F)F)C(F)(F)F`, for which the T/C reads like this: under setting [3], 100 % of control; under setting [4], 98 % of control; under setting [5], 96 % of control.

In the case of `O=[N+]([O-])c1ccc(SSC(Cl)(Cl)Cl)cc1`, the T/C (endpoint: mean survival time, dose: 6.25 mg/kg/injection, schedule: Q01DX009 (ip), vehicle: saline with Tween-80) is 101 % of control; the T/C (endpoint: mean survival time, dose: 12.5 mg/kg/injection, schedule: Q01DX009 (ip), vehicle: saline with Tween-80) was 101 % of control; the T/C (endpoint: mean survival time, dose: 25.0 mg/kg/injection, schedule: Q01DX009 (ip), vehicle: saline with Tween-80) was 101 % of control; the T/C under setting [1] was 100 % of control.

As to `C/C=C1\CC2C=CC1C2` (stereo not drawn) (tested in a mixture with another compound), the T/C is, setting by setting: (endpoint: mean survival time, dose: 80.5 mg/kg/injection, schedule: Q01DX009 (ip), vehicle: saline with Tween-80) 98 % of control; (endpoint: mean survival time, dose: 161.0 mg/kg/injection, schedule: Q01DX009 (ip), vehicle: saline with Tween-80) 87 % of control.

`CS(=N)(=O)c1ccccc1` (stereo not drawn): the T/C was 105 % of control under setting [6]; 103 % of control under setting [7]; 94 % of control (endpoint: mean survival time, dose: 400.0 mg/kg/injection, schedule: Q04DX003 (ip), vehicle: saline).

Regarding `O=C(O)/C=C(/Cl)c1ccccc1`, the T/C is 101 % of control under setting [2], 91 % of control under setting [8] and 89 % of control under setting [9].

As for `COc1ccc(NC(=O)CCC(=O)Oc2ccccc2)cc1`, the T/C was 94 % of control under setting [2]; 100 % of control under setting [3]; 97 % of control under setting [8]; 100 % of control under setting [4]; 94 % of control under setting [9]; 94 % of control under setting [5].

In the case of `O=C(O)C(O)C(O)C(O)C(O)CO.O=C(O)C(O)C(O)C(O)C(O)CO.[NH-]C1CCCCC1[NH-].[Pt+2]` (stereo not drawn), the T/C by setting is: (endpoint: mean survival time, dose: 3.13 mg/kg/injection, schedule: Q04DX003 (ip), vehicle: other) 123 % of control; (endpoint: mean survival time, dose: 6.25 mg/kg/injection, schedule: Q04DX003 (ip), vehicle: saline) 119 % of control; (endpoint: mean survival time, dose: 12.5 mg/kg/injection, schedule: Q04DX003 (ip), vehicle: saline) 166 % of control; (endpoint: mean survival time, dose: 25.0 mg/kg/injection, schedule: Q04DX003 (ip), vehicle: other) 162 % of control; (endpoint: mean survival time, dose: 25.0 mg/kg/injection, schedule: Q04DX003 (ip), vehicle: saline) 304 % of control; (endpoint: mean survival time, dose: 50.0 mg/kg/injection, schedule: Q04DX003 (ip), vehicle: other) 231 % of control. The T/C runs as follows: under setting [10], 281 % of control and 225 % of control; under setting [6], 306 % of control and 280 % of control.

With `O=C(CNC(=O)c1ccccc1)N/N=C/c1ccncc1`, the T/C was 90 % of control under setting [2] and 92 % of control under setting [9].

For the compound `N=C(N)SSCc1ccco1`, the T/C runs as follows: (endpoint: mean survival time, dose: 5.0 mg/kg/injection, schedule: Q04DX002 (ip), vehicle: saline with Tween-80) 96 % of control; (endpoint: mean survival time, dose: 10.0 mg/kg/injection, schedule: Q04DX002 (ip), vehicle: saline with Tween-80) 103 % of control; (endpoint: mean survival time, dose: 20.0 mg/kg/injection, schedule: Q04DX002 (ip), vehicle: saline with Tween-80) 100 % of control.

For the compound `COc1ccc(/C=C2/N=C(C)OC2=O)cc1OC(C)=O`, the T/C (endpoint: mean survival time, dose: 100.0 mg/kg/injection, schedule: Q01DX001 (ip), vehicle: saline) was 92 % of control; the T/C (endpoint: mean survival time, dose: 200.0 mg/kg/injection, schedule: Q01DX001 (ip), vehicle: saline) was 93 % of control; the T/C (endpoint: mean survival time, dose: 400.0 mg/kg/injection, schedule: Q01DX001 (ip), vehicle: saline) is 96 % of control.

On to `O=C(O)c1cscn1.O=C(O)c1cscn1.[I][Pt][I]`, for which the T/C was 108 % of control (endpoint: mean survival time, dose: 3.12 mg/kg/injection, schedule: Q04DX003 (ip), vehicle: distilled water + Tween-80); 101 % of control (endpoint: mean survival time, dose: 6.25 mg/kg/injection, schedule: Q04DX003 (ip), vehicle: distilled water + Tween-80); 104 % of control (endpoint: mean survival time, dose: 12.5 mg/kg/injection, schedule: Q04DX003 (ip), vehicle: distilled water + Tween-80); 102 % of control (endpoint: mean survival time, dose: 25.0 mg/kg/injection, schedule: Q04DX003 (ip), vehicle: distilled water + Tween-80); 104 % of control (endpoint: mean survival time, dose: 50.0 mg/kg/injection, schedule: Q04DX003 (ip), vehicle: distilled water + Tween-80); 110 % of control under setting [11]. Also, the T/C reads like this: (endpoint: mean survival time, dose: 100.0 mg/kg/injection, schedule: Q04DX003 (ip), vehicle: distilled water + Tween-80) 114 % of control; under setting [3], 104 % of control; (endpoint: mean survival time, dose: 200.0 mg/kg/injection, schedule: Q04DX003 (ip), vehicle: distilled water + Tween-80) 119 % of control; under setting [4], 122 % of control; under setting [5], 112 % of control.

For the compound `O=P(O)(O)CCc1ccccc1`, the T/C under setting [10] is 95 % of control, the T/C under setting [6] was 90 % of control and the T/C under setting [7] was 96 % of control.

On to `CC1CN1C(=O)Nc1cccc2c(NC(=O)N3CC3C)cccc12` (stereo not drawn), for which, where the note is “endpoint: mean survival time, dose: 28.0 mg/kg/injection, schedule: Q01DX009 (ip), vehicle: Klucel (hydroxypropylcellulose) (HPC)”, the T/C was 151 % of control.

As to `O=C(O)C(O)C(O)C(O)C(O)CO.[Mn]` (stereo not drawn), the T/C is, setting by setting: under setting [1], 106 % of control; under setting [11], 100 % of control; under setting [2], 107 % of control; under setting [3], 102 % of control; under setting [8], 118 % of control; under setting [4], 104 % of control.

As to `COC(=O)/C=C/c1ccc(O)cc1`, the T/C was 102 % of control (endpoint: mean survival time, dose: 100.0 mg/kg/injection, schedule: Q01DX001 (ip), vehicle: saline sonified); 101 % of control (endpoint: mean survival time, dose: 100.0 mg/kg/injection, schedule: Q04DX002 (ip), vehicle: saline with Tween-80); 102 % of control (endpoint: mean survival time, dose: 200.0 mg/kg/injection, schedule: Q01DX001 (ip), vehicle: saline sonified); 101 % of control (endpoint: mean survival time, dose: 200.0 mg/kg/injection, schedule: Q04DX002 (ip), vehicle: saline with Tween-80); 102 % of control (endpoint: mean survival time, dose: 400.0 mg/kg/injection, schedule: Q01DX001 (ip), vehicle: saline sonified); 96 % of control (endpoint: mean survival time, dose: 400.0 mg/kg/injection, schedule: Q04DX002 (ip), vehicle: saline with Tween-80).

Take `Cc1cc(N=Nc2ccc(S(=O)(=O)[O-])cc2)cc(C(=O)[O-])c1[O-].NC1CCCCC1N.[Na+].[Pt+4]`: the T/C runs as follows: (endpoint: median survival time, dose: 3.12 mg/kg/injection, schedule: Q04DX003 (ip), vehicle: saline with Tween-80) 180 % of control and 287 % of control; (endpoint: median survival time, dose: 6.25 mg/kg/injection, schedule: Q04DX003 (ip), vehicle: saline with Tween-80) 265 % of control and 344 % of control; (endpoint: median survival time, dose: 12.5 mg/kg/injection, schedule: Q04DX003 (ip), vehicle: saline with Tween-80) 244 % of control and 310 % of control; (endpoint: median survival time, dose: 25.0 mg/kg/injection, schedule: Q04DX003 (ip), vehicle: saline with Tween-80) 122 % of control.
